# Measurements published in publication PMC8205030, “Methoxy and bromo scans on N-(5-methoxyphenyl) methoxybenzenesulphonamides reveal potent cytotoxic compounds, especially against the human breast adenocarcinoma MCF7 cell line” (Journal of Enzyme Inhibition and Medicinal Chemistry, 2021).
# Assays:
# [1] = tested on: MCF7 (human breast carcinoma) cells; test: Cell growth assay (XTT), MCF7; type: cell-based; conditions: Homo sapiens, MCF7; 72 h drug exposure, XTT; read-out: Antiproliferative activity IC50 MCF7
# Procedure, shortened: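 Cells (1.5 × 10^4 cells/mL for MCF7, HeLa, HEK293; 3 × 10^4 cells/mL for HT-29) attached 24 h, then treated 72 h at 37 °C, 5% CO2. Screened at 1 µM; IC50 versus untreated controls from 10^−5 to 10^−10 M by nonlinear fit. XTT/PMS absorbance at 450 nm after 4 h (MCF7, HeLa) or 6 h (HT-29, HEK293); HT-29 with 10 µM verapamil.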
# MCF7 cells = test: Apoptotic cell death quantification (Annexin V-FITC/PI), MCF7; type: cell-based, human; conditions: 72 h
# Procedure: (§1) MCF7, HeLa, and HT-29 apoptotic cells were quantified using an Annexin V-FITC/PI apoptosis detection kit (Immunostep, Salamanca, Spain) according to the manufacturer’s guidelines. 1.5 ml/well of cells in the exponential growth phase at 2 × 10^4 cells/mL were seeded onto 12-well plates and left to attach overnight. After 24 h incubation, cells were treated with compound 25 at 87.5 or 175 nM. 72 h post-treatment, attached and floating cells of treated and untreated wells were collected, centrifuged, resuspended in the Annexin V binding buffer, and stained with Annexin V-FITC/PI. Cells were then incubated in darkness at room temperature for 15 min and a total of 30,000 cells were acquired and analysed using the BD Accuri™ C6 Plus Flow Cytometer and Software (version 1.0.264.21, BD Biosciences, San José, CA, USA), respectively. Compounds were dissolved in DMSO and the final solvent concentrations never exceeded 0.5% (v/v). Control wells included cells with 0.5% (v/v) DMSO.
# HeLa cells = test: Apoptotic cell death quantification (Annexin V-FITC/PI), HeLa; type: cell-based, human; conditions: 72 h
# Procedure: as §1
# p-62 in HeLa cells = test: Western blot of autophagosome marker p-62, HeLa; type: cell-based, human; conditions: 175 nM, 24 h
# Procedure: (§2) MCF7, HeLa and HT-29 cells in an exponential growth phase at 2 × 10^4 cells/mL were seeded in Petri dishes (20 × 100 mm) (10 ml/dish). After 24 h incubation, cells were treated with compound 25 at 175 nM, and the levels of p-62 in treated and untreated cells were measured at 24 h post-treatment. The culture medium was removed, cells were washed with PBS and resuspended in 1 ml lysis buffer (50 mM Tris, 130 mM NaCl, 1 mM EDTA, 1% Triton X-100) containing protease inhibitors (Complete, Roche Applied Science, Indianapolis). Cells were harvested and incubated with lysis buffer for 30 min at 4 °C in constant agitation. Cell extracts were centrifuged at 12,000 rpm for 15 min at 4 °C and the supernatants were stored at −80 °C. Protein concentrations were determined using Bradford (BioRad, Hercules, CA) method taking BSA (Bovine Serum Albumin) as standard. Protein extracts were used for electrophoresis mixing with loading buffer (4% SDS, 0.05% bromophenol blue, 20% glycerine, 2% β-mercaptoethanol, and Tris 100 mM at pH 6.8). Proteins were then denatured at 95 °C for 7 min. Protein samples (50 μg/lane) were subjected to electrophoresis on 8% acrylamide gel and SDS-PAGE running buffer at constant voltage (140 V). Then, acrylamide gels were transferred to a PVDF membrane (Merck Millipore, Burlington, Massachusetts, USA) using a semi-dry transfer system for 30 min at constant voltage (15 V). […]
# p-62 in HT-29 cells = test: Western blot of autophagosome marker p-62, HT-29; type: cell-based, human; conditions: HT-29, 175 nM, 24 h
# Procedure: as §2
structure (smiles),measurement,setting,value
"COc1ccc(S(=O)(=O)N(CC#N)c2cc(OC)c(Br)cc2OC)cc1 [Compound 25, N-(4-bromo-2,5-dimethoxyphenyl)-N-(cyanomethyl)-4-methoxybenzenesulphonamide]",IC50,[1],86 nM
same,Early apoptosis,"MCF7 cells; MCF7, 87.5 nM",11.7%
same,Late apoptosis,"MCF7 cells; MCF7, 87.5 nM",5.8%
same,Live (AnV–/PI–),"MCF7 cells; MCF7, 87.5 nM",82.1%
same,Necrosis,"MCF7 cells; MCF7, 87.5 nM",0.5%
same,Apoptotic cells,"MCF7 cells; MCF7, 175 nM",33%
same,Early apoptosis,"MCF7 cells; MCF7, 175 nM",23.8%
same,Late apoptosis,"MCF7 cells; MCF7, 175 nM",9.5%
same,Live (AnV–/PI–),"MCF7 cells; MCF7, 175 nM",65.7%
same,Necrosis,"MCF7 cells; MCF7, 175 nM",1.0%
same,Apoptotic cells,"MCF7 cells; MCF7, lowest concentration (87.5 nM)",18%
same,Early apoptosis,HeLa cells; 87.5 nM,52.3%
same,Late apoptosis,HeLa cells; 87.5 nM,39.7%
same,Live (AnV–/PI–),HeLa cells; 87.5 nM,6.5%
same,Necrosis,HeLa cells; 87.5 nM,1.5%
same,Early apoptosis,HeLa cells; 175 nM,47.5%
same,Late apoptosis,HeLa cells; 175 nM,45.3%
same,Live (AnV–/PI–),HeLa cells; 175 nM,4.1%
same,Necrosis,HeLa cells; 175 nM,3.1%
same,Apoptotic profile,HeLa cells; 87.5 and 175 nM,> 90%
same,p-62 levels,p-62 in HeLa cells,almost complete reduction in the expression of p-62
same,p-62 levels,p-62 in HT-29 cells,almost complete reduction in the expression of p-62
